# Experimental data reported in patent US20250282768A1 (Janssen Pharmaceutica NV, priority 2022, published 2025).
# Test system: p-IKKa levels in L363 (NIK translocated multiple myeloma) cells
# Test: Assay 2: Effect of compounds on p-IKKa levels in L363 (NIK translocated multiple myeloma) cells
# Assay type: cell-based
# Details: Homo sapiens, L-363, 6 h, read-out: Assay 2 IC50 (nM), p-IKKa (Ser 176/180) in BAFF stimulated L363 cells with MG132, 6 h; average if tested more than once
# Summary of the method: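 Read-out is p-IKKa Ser176/180 by AlphaLISA SureFire in lysates. Cells were BAFF-primed (250 ng/ml) overnight or left unstimulated, then exposed 6 h at 37 °C to compound with MG132 (10 μM), 0.3% DMSO. IC50 from sigmoidal curve fit, normalized between stimulated and unstimulated controls.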
row,SMILES,IC50 [nM]
1,"CN1CCn2nc(Nc3nccc(-c4cccc(-c5cc([C@]6(O)CCN(C)C6=O)on5)c4)n3)cc2C1=O [Example 23, (R)-2-((4-(3-(5-(3-Hydroxy-1-methyl-2-oxopyrrolidin-3-yl)isoxazol-3-yl)phenyl)pyrimidin-2-yl)amino)-5-methyl-6,7-dihydropyrazolo[1,5-a]pyrazin-4(5H)-one]",50 to 500
2,"Cc1ncccc1Nc1nccc(-c2cccc(-c3cc([C@]4(O)CCN(C)C4=O)on3)c2)n1 [Example 24, (R)-3-Hydroxy-1-methyl-3-(3-(3-(2-((2-methylpyridin-3-yl)amino)pyrimidin-4-yl)phenyl)isoxazol-5-yl)pyrrolidin-2-one]",50 to 500
3,"CN1CC[C@@](O)(c2cc(-c3cccc(-c4ccnc(Nc5ccn(C)n5)n4)c3)no2)C1=O [Example 25, (R)-3-Hydroxy-1-methyl-3-(3-(3-(2-((1-methyl-1H-pyrazol-3-yl)amino)pyrimidin-4-yl)phenyl)isoxazol-5-yl)pyrrolidin-2-one]",50 to 500
4,"CN1CC[C@@](O)(c2cc(-c3cccc(-c4ccnc(Nc5ccnn5C)n4)n3)no2)C1=O [Example 26, (R)-3-Hydroxy-1-methyl-3-(3-(6-(2-((1-methyl-1H-pyrazol-5-yl)amino)pyrimidin-4-yl)pyridin-2-yl)isoxazol-5-yl)pyrrolidin-2-one]",< 50
5,"CN1CC(F)(F)[C@@](O)(c2cc(-c3cccc(-c4ccnc(Nc5ccn(C)n5)n4)n3)no2)C1=O [Example 27, (R)-4,4-Difluoro-3-hydroxy-1-methyl-3-(3-(6-(2-((1-methyl-1H-pyrazol-3-yl)amino)pyrimidin-4-yl)pyridin-2-yl)isoxazol-5-yl)pyrrolidin-2-one]",< 50
6,"CN1CC[C@@](O)(c2cc(-c3cccc(-c4ccnc(Nc5cn(CC(F)F)nc5OC5CC5)n4)n3)no2)C1=O [Example 28, (R)-3-(3-(6-(2-((3-Cyclopropoxy-1-(2,2-difluoroethyl)-1H-pyrazol-4-yl)amino)pyrimidin-4-yl)pyridin-2-yl)isoxazol-5-yl)-3-hydroxy-1-methylpyrrolidin-2-one]",< 50
7,"Cc1nn(C)cc1Nc1nccc(-c2cccc(-c3cc([C@]4(O)CCN(C)C4=O)on3)n2)n1 [Example 29, (R)-3-(3-(6-(2-((1,3-Dimethyl-1H-pyrazol-4-yl)amino)pyrimidin-4-yl)pyridin-2-yl)isoxazol-5-yl)-3-hydroxy-1-methylpyrrolidin-2-one]",< 50
8,"CN1CC[C@@](O)(c2cc(-c3cccc(-c4ccnc(Nc5cnn(C)c5)n4)n3)on2)C1=O [Example 30, (R)-3-Hydroxy-1-methyl-3-(5-(6-(2-((1-methyl-1H-pyrazol-4-yl)amino)pyrimidin-4-yl)pyridin-2-yl)isoxazol-3-yl)pyrrolidin-2-one]",< 50
9,"CN1CC[C@@](O)(c2cc(-c3cccc(-c4ccnc(-n5ccc(N)n5)n4)n3)no2)C1=O [Example 32, (R)-3-(3-(6-(2-(3-Amino-1H-pyrazol-1-yl)pyrimidin-4-yl)pyridin-2-yl)isoxazol-5-yl)-3-hydroxy-1-methylpyrrolidin-2-one]",> 500
10,"CN1CC[C@@](O)(c2cc(-c3cccc(-c4ccnc(Nc5c[nH]nc5C(F)(F)F)n4)n3)no2)C1=O [Example 33, (R)-3-Hydroxy-1-methyl-3-(3-(6-(2-((3-(trifluoromethyl)-1H-pyrazol-4-yl)amino)pyrimidin-4-yl)pyridin-2-yl)isoxazol-5-yl)pyrrolidin-2-one]",> 500
11,"Cc1cn[nH]c1Nc1nccc(-c2cccc(-c3cc([C@]4(O)CCN(C)C4=O)on3)n2)n1 [Example 34, (R)-3-Hydroxy-1-methyl-3-(3-(6-(2-((4-methyl-1H-pyrazol-5-yl)amino)pyrimidin-4-yl)pyridin-2-yl)isoxazol-5-yl)pyrrolidin-2-one]",50 to 500
12,"Cc1cnn(-c2nccc(-c3cccc(-c4cc([C@]5(O)CCN(C)C5=O)on4)n3)n2)c1N [Example 35, (R)-3-(3-(6-(2-(5-Amino-4-methyl-1H-pyrazol-1-yl)pyrimidin-4-yl)pyridin-2-yl)isoxazol-5-yl)-3-hydroxy-1-methylpyrrolidin-2-one]",> 500
13,"Cc1n[nH]cc1Nc1nccc(-c2cccc(-c3cc([C@]4(O)CCN(C)C4=O)on3)n2)n1 [Example 36, (R)-3-Hydroxy-1-methyl-3-(3-(6-(2-((3-methyl-1H-pyrazol-4-yl)amino)pyrimidin-4-yl)pyridin-2-yl)isoxazol-5-yl)pyrrolidin-2-one]",< 50
14,"Cc1nn(-c2nccc(-c3cccc(-c4cc([C@]5(O)CCN(C)C5=O)on4)n3)n2)cc1N [Example 37, (R)-3-(3-(6-(2-(4-Amino-3-methyl-1H-pyrazol-1-yl)pyrimidin-4-yl)pyridin-2-yl)isoxazol-5-yl)-3-hydroxy-1-methylpyrrolidin-2-one]",> 500
15,"CN1CC[C@@](O)(c2cc(-c3cccc(-c4ccnc(Nc5cnn6cccnc56)n4)n3)no2)C1=O [Example 38, (R)-3-Hydroxy-1-methyl-3-(3-(6-(2-(pyrazolo[1,5-a]pyrimidin-3-ylamino)pyrimidin-4-yl)pyridin-2-yl)isoxazol-5-yl)pyrrolidin-2-one]",< 50
16,"CN1CC[C@@](O)(c2cc(-c3cccc(-c4ccnc(-n5cc(N)cn5)n4)n3)no2)C1=O [Example 39, (R)-3-(3-(6-(2-(4-Amino-1H-pyrazol-1-yl)pyrimidin-4-yl)pyridin-2-yl)isoxazol-5-yl)-3-hydroxy-1-methylpyrrolidin-2-one]",> 500
17,"CN1CC[C@@](O)(c2cc(-c3cccc(-c4ccnc(Nc5cn[nH]c5)n4)n3)no2)C1=O [Example 40, (R)-3-(3-(6-(2-((1H-Pyrazol-4-yl)amino)pyrimidin-4-yl)pyridin-2-yl)isoxazol-5-yl)-3-hydroxy-1-methylpyrrolidin-2-one]",< 50
18,"Cc1nocc1Nc1nccc(-c2cccc(-c3cc([C@]4(O)CCN(C)C4=O)on3)n2)n1 [Example 41, (R)-3-Hydroxy-1-methyl-3-(3-(6-(2-((3-methylisoxazol-4-yl)amino)pyrimidin-4-yl)pyridin-2-yl)isoxazol-5-yl)pyrrolidin-2-one]",< 50
19,"CN1CC[C@@](O)(c2cc(-c3cccc(-c4ccnc(Nc5cnn(CC(F)(F)F)c5)n4)n3)no2)C1=O [Example 42, (R)-3-Hydroxy-1-methyl-3-(3-(6-(2-((1-(2,2,2-trifluoroethyl)-1H-pyrazol-4-yl)amino)pyrimidin-4-yl)pyridin-2-yl)isoxazol-5-yl)pyrrolidin-2-one]",< 50
20,"CN1CC[C@@](O)(c2cc(-c3cccc(-c4ccnc(NC5(c6cnn(C)c6)CC5)n4)n3)no2)C1=O [Example 45, (R)-3-Hydroxy-1-methyl-3-(3-(6-(2-((1-(1-methyl-1H-pyrazol-4-yl)cyclopropyl)amino)pyrimidin-4-yl)pyridin-2-yl)isoxazol-5-yl)pyrrolidin-2-one]",> 500
21,"CCn1cc(Nc2nccc(-c3cccc(-c4cc([C@]5(O)CCN(C)C5=O)on4)n3)n2)cn1 [Example 46, (R)-3-(3-(6-(2-((1-Ethyl-1H-pyrazol-4-yl)amino)pyrimidin-4-yl)pyridin-2-yl)isoxazol-5-yl)-3-hydroxy-1-methylpyrrolidin-2-one]",< 50
22,"CN1CC[C@@](O)(c2cc(-c3cccc(-c4ccnc(Nc5ccn(C)n5)n4)n3)no2)C1=O [Example 47, (R)-3-Hydroxy-1-methyl-3-(3-(6-(2-((1-methyl-1H-pyrazol-3-yl)amino)pyrimidin-4-yl)pyridin-2-yl)isoxazol-5-yl)pyrrolidin-2-one]",< 50
23,"COc1nn(CCO)cc1Nc1nccc(-c2cccc(-c3cc([C@]4(O)CCN(C)C4=O)on3)n2)n1 [Example 48, (R)-3-Hydroxy-3-(3-(6-(2-((1-(2-hydroxyethyl)-3-methoxy-1H-pyrazol-4-yl)amino)pyrimidin-4-yl)pyridin-2-yl)isoxazol-5-yl)-1-methylpyrrolidin-2-one]",< 50
24,"COc1nn(CC(C)(C)O)cc1Nc1nccc(-c2cccc(-c3cc([C@]4(O)CCN(C)C4=O)on3)n2)n1 [Example 49, (R)-3-Hydroxy-3-(3-(6-(2-((1-(2-hydroxy-2-methylpropyl)-3-methoxy-1H-pyrazol-4-yl)amino)pyrimidin-4-yl)pyridin-2-yl)isoxazol-5-yl)-1-methylpyrrolidin-2-one]",< 50
25,"Cc1cn(C2CC(O)C2)nc1Nc1nccc(-c2cccc(-c3cc([C@]4(O)CCN(C)C4=O)on3)n2)n1 (stereo partly drawn) [Example 50, (R)-3-Hydroxy-3-(3-(6-(2-((1-(3-hydroxycyclobutyl)-4-methyl-1H-pyrazol-3-yl)amino)pyrimidin-4-yl)pyridin-2-yl)isoxazol-5-yl)-1-methylpyrrolidin-2-one]",< 50
26,"CN1CC[C@@](O)(c2cc(-c3cccc(-c4ccnc(Nc5cnn(C)c5)n4)n3)no2)C1=O [Example 52, (R)-3-Hydroxy-1-methyl-3-(3-(6-(2-((1-methyl-1H-pyrazol-4-yl)amino)pyrimidin-4-yl)pyridin-2-yl)isoxazol-5-yl)pyrrolidin-2-one]",< 50
27,"CN1CC[C@@](O)(c2cc(-c3cccc(-c4ccnc(Nc5cnn6ccccc56)n4)n3)no2)C1=O [Example 53, (R)-3-Hydroxy-1-methyl-3-(3-(6-(2-(pyrazolo[1,5-a]pyridin-3-ylamino)pyrimidin-4-yl)pyridin-2-yl)isoxazol-5-yl)pyrrolidin-2-one]",< 50
28,"CN1CC[C@@](O)(c2cc(-c3cccc(-c4ccnc(Nc5cn(C)nc5OCC(F)F)n4)n3)no2)C1=O [Example 54, (R)-3-(3-(6-(2-((3-(2,2-Difluoroethoxy)-1-methyl-1H-pyrazol-4-yl)amino)pyrimidin-4-yl)pyridin-2-yl)isoxazol-5-yl)-3-hydroxy-1-methylpyrrolidin-2-one]",< 50
29,"CCOc1nn(C)cc1Nc1nccc(-c2cccc(-c3cc([C@]4(O)CCN(C)C4=O)on3)n2)n1 [Example 55, (R)-3-(3-(6-(2-((3-Ethoxy-1-methyl-1H-pyrazol-4-yl)amino)pyrimidin-4-yl)pyridin-2-yl)isoxazol-5-yl)-3-hydroxy-1-methylpyrrolidin-2-one]",< 50
